Data set [1] has as its system TAC-mice (thoracic aortic constriction, cardiac hypertrophy). Put plainly: Thoracic aortic constriction (TAC) mouse model of pressure overload cardiac hypertrophy. The class given is in vivo, mouse (C57B1/6J). To be noted: for Hypertrophic response, H&E-stained histologic sections (FIG. 2): 3 weeks, compound 950 15 mg/kg twice a day, AUDA-BE 3 mg/kg twice a day, in drinking water; for Cardiac hypertrophy after drug treatment: sEH inhibitor in drinking water for three weeks. How it is done:
Ascending aortic constriction was performed in 8-week-old male C57B1/6J mice (Charles River, Wilmington, Mass.). Animals were anesthetized with intraperitoneal ketamine 50 mg/kg and xylazine 2.5 mg/kg, and aortic constriction was created via a left thoracotomy by placing a ligature securely around the ascending aorta and a 26-gauge needle and then removing the needle. Immediately after the surgery, animals with ascending aortic stenosis were randomized and placed in one of the following regimens for three weeks: (a) compound 950 in drinking water ([…]), (b) AUDA-BE in drinking water, or (c) no drug. Age-matched animals served as controls.
To assess systolic function, echocardiograms were performed using M-mode and two-dimensional measurements as described previously. The measurements represented the average of six selected cardiac cycles from at least two separate scans performed in random-blind fashion with papillary muscles used as a point of reference for consistency in level of scan. End diastole was defined as the maximal left ventricle diastolic dimension and end systole was defined as the peak of posterior wall motion. Fractional shortening (FS), a surrogate of systolic function, was calculated from left ventricle dimensions as follows: FS=((EDD−ESD)/EDD)×100%.
To compare myocyte size, hearts were removed and rinsed for 1 minute in 0.1 mol/L phosphate buffered saline (PBS) with 50 mmol/L KCl (pH 7.2) and subsequently fixed overnight at 4° C. in 4% paraformaldehyde prepared in PBS. Vibratome sections (100 μm) from similar areas of the left ventricles were stained in a 1:20 dilution of rhodamine phalloidin (Molecular Probes, Inc., Eugene, Oreg.) and imaged with a BioRad MRC1000 confocal scanning laser microscope (BioRad Laboratories, Hercules, Calif.). A minimum of 5 optical sections was collected from the free wall of the left ventricle of each animal with a Zeiss 60× NA 1.4 lens. All images used for myocyte measurements were collected with identical laser, iris, gain, and black level operating parameters. Myocyte widths were measured parallel to the direction of the sarcomeres from unbranched regions of the myocytes near an intercalated disk with the length/profile function. Data sets were then compared using Student t tests.
Thoracic aortic constrictions (“TACs”) were created in 8-week-old male C57B1/6J mice as described in Example 1, above, resulting in a chronic pressure overload induced cardiac hypertrophy. TAC-mice were randomized to receive either no therapy or one of two exemplar sEH inhibitors (compound 950 and AUDA-BE) in drinking water for a period of three weeks. […] This effect is independent of the anti-hypertensive action of the drugs, since the hearts were constantly exposed to the high afterload created by the aortic constriction.
All the mice were sacrificed at three weeks after the TAC was created.
FIG. 2 further compares hematoxylin and eosin (“H&E”)-stained histologic section of a sham-operated heart and of TAC-mouse hearts with or without sEHI treatment. […] We further assessed the chamber size and wall thickness in untreated TAC-mice compared to treated TAC-mice using echocardiography.

Data set [2] relates to neonatal mouse cardiac myocytes. Kind of data set: Angiotensin II induced hypertrophy of primary neonatal mouse cardiac myocytes in culture. In kind it is cell-based, mouse (C57B1/6J). To be noted: 48 hours of treatment with ANG II. The protocol: Single cardiac myocytes were isolated from 5 day old neonatal mice (C57B1/6J) as previously described (Nuss & Marban, J. Physiol. 479 (Pt 2):265-79 (1994); Chiamvimonvat et al., J. Physiol. 483 (Pt 2):307-18 (1995)). Mice were anesthetized with pentobarbital (40 mg/kg) intraperitoneally. Animals were sacrificed by decapitation and hearts excised under sterile conditions into a filter sterilized (0.2 μm) nominally Ca^2+-, bicarbonate-free Hanks HEPES-buffered solution, pH 7.4 at room temperature. Atrial and great vessel tissues were carefully removed. The ventricles were washed and minced in this Ca^2+-free buffered solution containing trypsin (Difco®, BD Diagnostic Systems, Sparks Md., 1.5 mg/ml), DNase (1 ml/100 ml of the enzyme solution). The tissues were then incubated with 2 ml of the enzyme solution and stirred continuously at 37° C. The supernatant was removed and the enzyme solution replaced at five-minute intervals. The supernatant obtained after the first 15 minutes was discarded. Thereafter, the supernatant was diluted 1:1 in bovine calf serum. The cells were centrifuged at 2000 r.p.m. for three minutes and resuspended in MEM culture medium (Invitrogen, Carlsbad, Calif.) containing 5% bovine calf serum (Invitrogen), penicillin G (sodium) and vitamin B12. The viability of the cells was assessed using the trypan blue dye exclusion test. […]

In data set [3] the test system is TAC-mice (thoracic aortic constriction, cardiac hypertrophy). Kind of data set: Thoracic aortic constriction (TAC) mouse model of pressure overload cardiac hypertrophy. In kind it is in vivo, mouse (C57B1/6J). To be noted: after 3 and 6 weeks of follow up.
Data set [4] concerns the target T1, soluble epoxide hydrolase (sEH) (Homo sapiens, UniProt P34913).
T1 sequence (P34913 with tags, fused parts or gaps A5G/DEL257-257/G258W): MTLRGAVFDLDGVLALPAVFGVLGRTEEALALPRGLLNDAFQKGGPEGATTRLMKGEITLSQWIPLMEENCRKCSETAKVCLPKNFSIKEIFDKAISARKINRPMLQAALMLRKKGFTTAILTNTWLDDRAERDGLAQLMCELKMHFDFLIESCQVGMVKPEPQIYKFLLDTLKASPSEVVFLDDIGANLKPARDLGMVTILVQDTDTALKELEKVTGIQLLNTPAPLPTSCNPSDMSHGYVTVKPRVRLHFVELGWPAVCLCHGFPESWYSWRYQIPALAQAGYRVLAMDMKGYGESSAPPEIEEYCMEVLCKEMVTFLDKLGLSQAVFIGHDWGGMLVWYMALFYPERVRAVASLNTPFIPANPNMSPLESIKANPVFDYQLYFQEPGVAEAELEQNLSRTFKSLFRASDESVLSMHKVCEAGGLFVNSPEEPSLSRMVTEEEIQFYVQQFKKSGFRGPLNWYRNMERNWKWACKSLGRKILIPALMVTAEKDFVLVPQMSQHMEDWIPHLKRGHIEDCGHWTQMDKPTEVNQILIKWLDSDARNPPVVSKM
Kind of data set: Inhibition of soluble epoxide hydrolase activity. In kind it is biochemical. The source says:
Any of a number of standard assays for determining epoxide hydrolase activity can be used to determine inhibition of sEH. For example, suitable assays are described in Gill, et al., Anal Biochem 131, 273-282 (1983); and Borhan, et al., Analytical Biochemistry 231, 188-200 (1995)). Suitable in vitro assays are described in Zeldin et al., J. Biol. Chem. 268:6402-6407 (1993). Suitable in vivo assays are described in Zeldin et al., Arch Biochem Biophys 330:87-96 (1996). […]
The enzyme also can be detected based on the binding of specific ligands to the catalytic site which either immobilize the enzyme or label it with a probe such as dansyl, fluoracein, luciferase, green fluorescent protein or other reagent. […] The enzyme also can be detected based on the generation of fluorescent products following the hydrolysis of the epoxide. […]

A short description of the next data set: Metabolic stability. The class given is in vitro ADME.

Experimental findings from patent publication US8242170B2, “Use of cis-epoxyeicosatrienoic acids and inhibitors of soluble epoxide hydrolase to reduce cardiomyopathy” (The Regents of the University of California, priority 2005, dated 2012) are described below.

“Also recorded” adds a separate entry of the source.

`CCOCCOCCOCCCCCNC(=O)NC12CC3CC(CC(C3)C1)C2` [compound 950, Adamantan-1-yl-3-{5-[2-(2-ethoxyethoxy)ethoxy]pentyl}urea]: in data set [1], the “Hypertrophic response, H&E-stained histologic sections (FIG. 2)” value is reported as “prevents the development of cardiac hypertrophy; also recorded: completely prevented” and the “Cardiac hypertrophy after drug treatment” value was “almost complete resolution of cardiac hypertrophy”. Also, the “Development of cardiac hypertrophy and failure, M-mode echocardiography (FIG. 3)” value in data set [1] (after three weeks of treatment) was “completely prevented the development of cardiac hypertrophy and failure”. Also, in data set [1] (drinking water three weeks, sacrificed at three weeks after TAC), the “Cardiac hypertrophy, whole hearts (FIG. 1)” value is on record as “no evidence of cardiac hypertrophy”. Also, in data set [1] (left ventricle sections, three weeks), the “Loss of organization of the myofibrils (myofibril disarray), anti-alpha actinin immunofluorescence (FIG. 4)” value was “effects were prevented”. In addition, the “Cell size of neonatal cardiac myocytes, ANG II plus compound versus ANG II alone” value in data set [2] was “significant differences in the cell size”. In data set [3], the “Development of cardiac hypertrophy and failure, echocardiography” value is “can prevent the development of cardiac hypertrophy and failure”.

Take `CCCCCCCCCCCCNC(=O)NC12CC3CC(CC(C3)C1)C2` [ADU, N-Adamantyl-N′-dodecyl urea]: in data set [4], the “Activity as inhibitor of sEH” value is on record as “particularly high activity on sEH”. The Metabolic stability result in “Metabolic stability” was “metabolically stable”.

`CCCCOC(=O)CCCCCCCCCCCNC(=O)NC12CC3CC(CC(C3)C1)C2` [AUDA-BE, 12-(3-Adamantan-1-yl-ureido)dodecanoic acid butyl ester]: in data set [1], the “Hypertrophic response, H&E-stained histologic sections (FIG. 2)” value is listed as “prevents the development of cardiac hypertrophy; also recorded: completely prevented” and the “Cardiac hypertrophy after drug treatment” value was “almost complete resolution of cardiac hypertrophy”.
